Here are results for 13 compounds from PMC1847840, “Structural and Chemical Profiling of the Human Cytosolic Sulfotransferases” (PLoS Biology, 2007).

The target in one assay is T1, SULT1A1 (Homo sapiens, UniProt P50225).
T1 construct: purified recombinant; clone and tag not described
The experiment in a line: thermal aggregation shift (StarGazer static light scattering). The class given is binding. The settings on record: 1 mM compound, pH 7.5, with saturating PAP. An excerpt:
thermal aggregation shift (StarGazer static light scattering) on SULT1A1

In a further assay the target is T2, SULT1C3 (Homo sapiens, UniProt Q6IMI6).
T2 construct: recombinant, modified pET28a-LIC, bacterial expression; extra Gly-Ser at N-terminus
Described as above. It is filed as binding. Particulars: 1 mM compound.

In a further assay the target is T3, SULT1C1 (Homo sapiens, UniProt O00338).
T3 construct: gene SULT1C2; recombinant, modified pET28a-LIC; extra Gly-Ser at N-terminus
The description is as above. It is filed as binding. The settings on record: 1 mM compound. An excerpt: thermal aggregation shift (StarGazer static light scattering) on SULT1C1

For assay [1], the target named is T4, SULT1B1 (Homo sapiens, UniProt O43704).
T4 construct: recombinant, modified pET28a-LIC, bacterial expression; extra Gly-Ser at N-terminus
The description is as above. It is filed as binding. The settings on record: 1 mM compound. An excerpt: thermal aggregation shift (StarGazer static light scattering) on SULT1B1

The target of assay [2] is T5, SULT1C2 (Homo sapiens, UniProt O75897).
T5 construct: gene SULT1C4; recombinant, modified pET28a-LIC, bacterial expression; extra Gly-Ser at N-terminus
Described as above. It is filed as binding. Particulars: 1 mM compound, pH 7.5, no other ligand. From the text:
thermal aggregation shift (StarGazer static light scattering) on SULT1C2

The target in the next assay is T6, SULT1E1 (Homo sapiens, UniProt P49888).
T6 construct: purified recombinant; clone and tag not described
T6 sequence (P49888 1-294): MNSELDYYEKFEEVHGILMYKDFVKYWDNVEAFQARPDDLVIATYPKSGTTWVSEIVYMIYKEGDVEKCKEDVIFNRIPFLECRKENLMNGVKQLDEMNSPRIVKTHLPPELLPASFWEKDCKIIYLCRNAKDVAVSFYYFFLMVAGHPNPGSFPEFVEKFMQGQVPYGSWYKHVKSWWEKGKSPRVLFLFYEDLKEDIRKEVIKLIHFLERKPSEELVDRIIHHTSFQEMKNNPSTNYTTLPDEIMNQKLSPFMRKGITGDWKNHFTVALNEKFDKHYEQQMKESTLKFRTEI
Described as above. It is filed as binding. The settings on record: 1 mM compound, pH 7.5, with saturating PAP. An excerpt: thermal aggregation shift (StarGazer static light scattering) on SULT1E1

The next assay addresses T7, SULT1A3 (Homo sapiens, UniProt P0DMM9).
T7 construct: purified recombinant; clone and tag not described; SULT1A4 encodes the same protein
The description is as above. The class given is binding. The settings on record: 1 mM compound, pH 7.5, with saturating PAP. An excerpt:
thermal aggregation shift (StarGazer static light scattering) on SULT1A3

A further assay has as its target T8, SULT4A1 (Homo sapiens, UniProt Q9BR01).
T8 construct: recombinant, modified pET28a-LIC, bacterial expression; extra Gly-Ser at N-terminus
T8 sequence (Q9BR01 1-284): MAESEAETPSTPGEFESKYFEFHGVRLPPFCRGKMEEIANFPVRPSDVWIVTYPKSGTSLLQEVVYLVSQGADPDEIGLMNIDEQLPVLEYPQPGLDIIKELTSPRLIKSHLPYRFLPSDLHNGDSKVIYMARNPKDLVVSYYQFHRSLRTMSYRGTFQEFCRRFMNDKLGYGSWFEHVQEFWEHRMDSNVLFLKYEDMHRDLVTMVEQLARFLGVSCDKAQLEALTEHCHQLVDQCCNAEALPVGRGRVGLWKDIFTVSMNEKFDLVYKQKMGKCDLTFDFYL
Described as above. The class given is binding. The settings on record: 1 mM compound, pH 7.5, without PAP. An excerpt:
thermal aggregation shift (StarGazer static light scattering) on SULT4A1

For the next assay, the target named is T9, SULT2A1 (Homo sapiens, UniProt Q06520).
T9 construct: purified recombinant; clone and tag not described
T9 sequence (Q06520 1-285): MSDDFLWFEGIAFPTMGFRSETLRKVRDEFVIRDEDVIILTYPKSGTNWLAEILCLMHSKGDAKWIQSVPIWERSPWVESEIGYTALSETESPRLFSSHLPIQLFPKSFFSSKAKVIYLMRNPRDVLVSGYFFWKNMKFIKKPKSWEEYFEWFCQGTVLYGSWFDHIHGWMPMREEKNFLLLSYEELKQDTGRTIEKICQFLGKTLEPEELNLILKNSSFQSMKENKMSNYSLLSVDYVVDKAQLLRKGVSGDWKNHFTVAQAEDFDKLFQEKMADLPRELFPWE
The description is as above. The class given is binding. The settings on record: 1 mM compound, pH 7.5, without PAP. An excerpt: thermal aggregation shift (StarGazer static light scattering) on SULT2A1

The target in assay [3] is T4, SULT1B1. The experiment in a line: HPLC PAPS to PAP conversion, inhibition of sulfotransferase activity. The class given is biochemical. Particulars: 1-naphthol as substrate; PCP 5 to 312 μM; pH 7.5, 37 °C.
For assay [4], the target named is T5, SULT1C2. The experiment in a line: X-ray crystal structure, […] Å. The class given is binding. The settings on record: ternary complex with PAP; substrate pocket.

Structures are written as SMILES.

T2 sequence (Q6IMI6 whole entry): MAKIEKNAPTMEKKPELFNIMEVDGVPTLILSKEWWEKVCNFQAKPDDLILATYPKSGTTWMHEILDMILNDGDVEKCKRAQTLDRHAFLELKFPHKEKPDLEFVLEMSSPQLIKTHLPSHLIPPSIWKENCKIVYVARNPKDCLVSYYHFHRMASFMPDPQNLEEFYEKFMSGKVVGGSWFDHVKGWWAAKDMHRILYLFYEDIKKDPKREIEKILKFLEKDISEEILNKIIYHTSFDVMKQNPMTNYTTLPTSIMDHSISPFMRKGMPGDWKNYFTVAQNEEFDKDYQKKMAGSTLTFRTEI
T4 sequence (O43704 whole entry): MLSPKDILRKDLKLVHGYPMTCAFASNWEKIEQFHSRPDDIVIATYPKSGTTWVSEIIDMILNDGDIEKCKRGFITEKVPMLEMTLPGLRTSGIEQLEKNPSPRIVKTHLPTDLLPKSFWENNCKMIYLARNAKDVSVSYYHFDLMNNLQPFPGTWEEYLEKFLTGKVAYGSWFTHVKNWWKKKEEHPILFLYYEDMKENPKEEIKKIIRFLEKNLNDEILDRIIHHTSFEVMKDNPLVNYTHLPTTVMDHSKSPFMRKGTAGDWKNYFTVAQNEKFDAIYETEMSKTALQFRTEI
T3 sequence (O00338 whole entry): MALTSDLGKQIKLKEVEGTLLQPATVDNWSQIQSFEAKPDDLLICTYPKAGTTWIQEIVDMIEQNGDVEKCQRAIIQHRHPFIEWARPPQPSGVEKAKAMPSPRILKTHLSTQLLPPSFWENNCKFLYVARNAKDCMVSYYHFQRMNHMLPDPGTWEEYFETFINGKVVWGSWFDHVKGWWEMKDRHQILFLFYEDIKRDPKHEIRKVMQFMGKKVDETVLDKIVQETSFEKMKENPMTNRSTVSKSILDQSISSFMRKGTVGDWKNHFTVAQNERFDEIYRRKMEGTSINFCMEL
T5 sequence (O75897 whole entry): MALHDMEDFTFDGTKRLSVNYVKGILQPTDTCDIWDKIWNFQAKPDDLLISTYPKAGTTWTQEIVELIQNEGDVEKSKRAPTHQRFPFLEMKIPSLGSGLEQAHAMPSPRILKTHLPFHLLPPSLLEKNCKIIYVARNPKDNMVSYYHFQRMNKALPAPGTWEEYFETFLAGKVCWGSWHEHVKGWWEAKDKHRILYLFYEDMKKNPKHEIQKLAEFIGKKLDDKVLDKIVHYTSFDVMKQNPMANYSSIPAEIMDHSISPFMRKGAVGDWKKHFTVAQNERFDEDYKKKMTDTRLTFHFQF
T1 sequence (P50225 whole entry): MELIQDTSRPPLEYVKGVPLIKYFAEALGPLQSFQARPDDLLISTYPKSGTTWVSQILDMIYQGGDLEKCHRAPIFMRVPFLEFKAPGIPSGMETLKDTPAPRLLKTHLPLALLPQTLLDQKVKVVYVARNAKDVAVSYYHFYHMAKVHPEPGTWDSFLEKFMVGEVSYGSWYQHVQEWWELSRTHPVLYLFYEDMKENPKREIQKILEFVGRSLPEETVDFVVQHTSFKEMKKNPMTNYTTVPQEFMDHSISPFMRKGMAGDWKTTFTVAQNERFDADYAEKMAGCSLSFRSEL
T7 sequence (P0DMM9 whole entry): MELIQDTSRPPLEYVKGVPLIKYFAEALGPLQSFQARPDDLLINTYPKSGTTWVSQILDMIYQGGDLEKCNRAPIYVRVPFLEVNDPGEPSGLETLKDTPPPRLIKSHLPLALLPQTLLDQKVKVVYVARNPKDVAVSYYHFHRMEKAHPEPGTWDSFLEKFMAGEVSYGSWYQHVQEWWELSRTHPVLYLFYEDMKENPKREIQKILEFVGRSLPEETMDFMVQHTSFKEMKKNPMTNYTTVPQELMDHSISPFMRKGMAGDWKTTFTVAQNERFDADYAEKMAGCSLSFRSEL

As to `O=[N+]([O-])c1cc(Cl)c(O)c(Cl)c1` [2,6-dichloro-4-nitrophenol], the dTagg at SULT1A1 turned out to be 8.7 °C. For the compound `CCc1ccccc1O` [2-ethylphenol], the dTagg on SULT1C3 (pH 7.5, with saturating PAP) was determined as 2.1 °C. For `Nc1ncnc2c1ncn2[C@@H]1O[C@H](COP(=O)(O)O)[C@@H](OP(=O)(O)O)[C@H]1O` [3′-phosphoadenosine 5′-phosphate], the dTagg on SULT1C1 (pH 7.5, no other ligand) turned out to be 4.5 °C; at SULT1B1 [1] (pH 7.5, no other ligand) it was 7.8 °C; at SULT1C2 [2], 6.4 °C; at SULT1C3 (pH 7.5, no other ligand) it was 6.5 °C. `C#C[C@]1(O)CC[C@H]2[C@@H]3CCc4cc(O)ccc4[C@H]3CC[C@@]21C` [17α-ethinylestradiol]: the dTagg on SULT1E1 came out at 4.3 °C. With `O=C(NN=Cc1coc2c(Cl)cc(Cl)cc2c1=O)c1cc(Br)c(O)c(Br)c1` [DBHD, 3,5-dibromo-4-hydroxy-benzoic acid (6,8-dichloro-4-oxo-4H-chromen-3-ylmethylene) hydrazide], the dTagg on SULT1B1 [1] (pH 7.5, without PAP) is 11.4 °C. As for `NCCc1ccc(O)c(O)c1` [dopamine], the dTagg on SULT1A3 was 2.3 °C. Turning to `CNC[C@H](O)c1ccc(O)c(O)c1` [epinephrine], the dTagg on SULT4A1 stood at 16 °C. Regarding `CC(C)NCC(O)c1ccc(O)c(O)c1` (stereo not shown) [isoprenaline], on SULT4A1, the dTagg stood at 18 °C.

On to `C[C@H](CCC(=O)O)[C@H]1CC[C@H]2[C@@H]3CC[C@@H]4C[C@H](O)CC[C@]4(C)[C@H]3CC[C@]12C` [lithocholic acid], for which the dTagg on SULT2A1 turned out to be 4.4 °C. On to `Oc1c(Cl)c(Cl)c(Cl)c(Cl)c1Cl` [pentachlorophenol], for which the dTagg was determined as 10.2 °C at SULT1A1 and 8.9 °C at SULT1B1 [1] (pH 7.5, with saturating PAP). Also, on SULT1B1 [3], the “% inhibition” value was “PCP and DBHD were strong inhibitors of SULT1B1”. Further, at SULT1C2 [4], the “X-ray crystal structure, 1.8 Å” value was “we determined the structure of SULT1C2 bound to PAP and PCP”. On to `O=c1c(O)c(-c2ccc(O)c(O)c2)oc2cc(O)cc(O)c12` [quercetin dihydrate], for which, on SULT1C1 (pH 7.5, without PAP), the dTagg was found to be 31 °C. The same measure, in the same setting: with `Oc1ccc(/C=C/c2cc(O)cc(O)c2)cc1` [resveratrol] the figure was 6.6 °C. Regarding `C[C@H]1CCC[C@H](O)CCC/C=C/c2cc(O)cc(O)c2C(=O)O1` [α-zearalenol], on SULT1C3 (pH 7.5, with saturating PAP), the dTagg amounted to 2.8 °C.
